Counter-ions that a name gives are not always drawn.
How the values were obtained:
Rat PK assay = format: in vivo, Sprague Dawley rats; conditions: Sprague Dawley, plasma, 30 mg/kg, 30 mpk po
Method: Using the above test procedure, the following results were obtained: • tartrate salt: monkey AUC=30 ng.h/mL at 10 mpk po • xinafoate salt: monkey AUC=0 ng.h/mL at 10 mpk po Assay Protocol for Rat PK Assay:
[…] The dose volume was 5 ml/kg dose. Plasma was collected at 0.5, 1, 2, 3, 4, and 6 hr. Blood samples were collected with heparin, and the plasma was stored with EDTA.

rats = test: Lung function assay (forced expiratory maneuvers after ovalbumin challenge); format: in vivo; conditions: 5 hr before antigen challenge
Method: Two fasted Sprague Dawley rats were dosed orally at 10 mpk with compound in 0.4% HPMC vehicle. The dose volume was 5 ml/kg dose. Plasma was collected at 0.5, 1, 2, 3, 4, and 6 hr. Blood samples were collected with heparin, and the plasma was stored with EDTA.
Lung function was measured using a forced expiratory maneuvers technique. In this procedure, the rats were anesthetized and a tracheal catheter was inserted. The rats were placed inside a whole body plethysmograph that contained a breathing valve capable of separating inflations and deflations of the lungs. The lungs were then subject to forced inflation of the lungs to total lung capacity followed by rapid deflation to residual volume. Measurements of forced vital capacity and peak expiratory flow were used to measure the effects of antigen challenge and assess the inhibitory effects of the compound of formula I. The drug was admixed with lactose for intratracheal delivery and given directly into the trachea with a fine microsprayer 5 hr before the antigen challenge. Orally delivered compound was given in 0.4% methylcellulose vehicle 5 hr before the antigen challenge. Control animals received intratracheal lactose or methylcellulose, respectively. The antigen challenge consisted of aerosolized exposure for 30 min to 1% ovalbumin. Forced expiratory lung functions were measured 24 hr after the antigen (ovalbumin) exposure.

[1] = Physical properties of salts of Compound A (hygroscopicity, hydrate stability); format: physicochemical; conditions: solid salt
inflammatory cells = test: Allergic Brown-Norway rat assay: inhibition of recruitment of inflammatory cells into the airways (BALF cell counts after OVA challenge); format: in vivo, Brown-Norway rats
Method: Assay Protocol for Allergic Brown-Norway Rats:
Inbred male BN rats weighing 150 to 200 g were obtained from Charles River Laboratory (Wilmington, Mass.). Prior to use, the animals were allowed food and water ad libitum. The test compounds were administered 5 h prior to antigen challenge either by oral or inhalational route, as detailed in the “delivery of test compounds” section.
Sensitization and Antigen Bronchoprovocation
The animals were divided into two main groups viz. an alum group and an antigen group. In the antigen group, animals were sensitized by an intra-peritoneal (i.p.) injection of 1 ml alum-precipitated antigen containing 20 μg of ovalbumin (OVA, grade III; Sigma chemical Co., St Louis, Mo.) and 8 mg of Al(OH)3 suspended in 0.9% saline vehicle. A booster injection of this alum-OVA mixture was given again 7 days later. Animals belonging to the alum group received injections containing alum only. Seven days after the second injection, animals were exposed to aerosolized antigen bronchoprovocation which was performed by placing the rats in an enclosed plexiglass chamber (21 liters) and exposing the rats to aerosolized OVA (1%) for 30 min. The aerosolized OVA was produced by an ultrasonic nebulizer (DeVilbiss, Somerset, Pa., USA; Model Ultra-Neb 99) at a flow rate of approximately 8 liters/min. […]

Row | AUC (Rat PK assay) [ng·h/mL] | hygroscopicity [1] | Compound | inhibition of forced vital capacity (FVC) (rats; 0.02 mpk it (intra-tracheal)) [%] | inhibition of forced vital capacity (FVC) (rats; 3 mpk po) [%] | inhibition of inflammatory cells (inflammatory cells; 0.02 mpk, intra-tracheal dosing, 5 h prior to antigen challenge, allergic BN rats) [%] | better inhibition of inflammatory cells via intra-trachea administration compared to oral administration (inflammatory cells; intra-trachea vs oral administration) [fold] | stability of crystalline forms [1]
1 | 350 | non-hygroscopic | CCOC(=O)[C@@H]1C[C@@H](NC(=O)C2CC2)CN1C(=O)c1nc(-c2ccc(OC)c3nc(C(F)(F)F)ccc23)oc1[C@H](C)N [xinafoate salt, xinafoate salt of 1-[[5-(1(S)-aminoethyl)-2-[8-methoxy-2-(trifluoromethyl)5-quinolyl]-4-oxazolyl]carbonyl]-4(R)-[(cyclopropyl-carbonyl)amino]-L-proline, ethyl ester] | 54 | 31 | 69 | 25 | 
2 |  |  | fumarate |  |  |  |  | unstable hydrates
